Bounds are passed on as bounds.

For assay [1], the target named is T1, MMP-2 (gelatinase A) (Homo sapiens, UniProt P08253).
T1 construct: made in house; host or cells: COS-1 cells transfected with human pro-MMP-2 cDNA (secreted into culture medium)
T1 sequence (P08253 110-660): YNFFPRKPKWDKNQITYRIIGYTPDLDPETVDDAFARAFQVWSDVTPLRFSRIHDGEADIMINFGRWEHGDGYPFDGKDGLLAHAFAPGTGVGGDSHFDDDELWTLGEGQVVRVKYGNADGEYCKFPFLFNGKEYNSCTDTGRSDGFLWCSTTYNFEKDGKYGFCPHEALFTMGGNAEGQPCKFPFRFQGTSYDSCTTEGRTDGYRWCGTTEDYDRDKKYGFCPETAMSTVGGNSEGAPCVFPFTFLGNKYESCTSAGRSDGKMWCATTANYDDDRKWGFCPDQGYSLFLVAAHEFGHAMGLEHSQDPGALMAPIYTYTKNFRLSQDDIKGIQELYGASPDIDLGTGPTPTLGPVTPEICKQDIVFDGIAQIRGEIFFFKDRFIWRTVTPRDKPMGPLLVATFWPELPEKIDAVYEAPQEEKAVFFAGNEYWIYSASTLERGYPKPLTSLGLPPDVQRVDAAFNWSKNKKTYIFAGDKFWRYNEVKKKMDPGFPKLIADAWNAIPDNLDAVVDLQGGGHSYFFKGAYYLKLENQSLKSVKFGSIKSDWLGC
The assay is described as follows: MMP-2 (gelatinase A) inhibitory activity, FITC-labeled type IV collagen degradation. The class given is biochemical. Conditions: 50% inhibition of collagen type IV degradation; activated pro MMP-2 from transfected COS-1 cells; 42° C., 4 h. As for the experimental part:
(§1) Experiment 2: MMP-2 (gelatinase A) and MMP-9 (gelatinase B) inhibitory activities.
(§2) Pro MMP-2 was obtained from culture medium separated from human pro-MMP-2 cDNA tranfected COS-1 cells. It was activated by 1 mM (p-aminophenyl)mercury acetic acid, and MMP-9, derived human fibrosarcome,was purchased from Yagai Co. Ltd. Inhibition of both enzyme activities were estimated by enzyme assay using type IV collagenase activity assay kit (Yagai Co. Ltd., Biswaz, C. et al., J. Cell.Biochem., 28, 39 (1984)). MMP-2 or MMP-9 (0.01 U/ml), test compound (several concentrations), and FITC-labeled type IV collagen (derived bovine placenta, 25 μg) were incubated in 100 μl of 0.05M Tris - HCl buffer (pH 7.5) containing 200 mM NaCl and 5 mM CaCl2 at 42° C. for 4 h. Inhibitory activity of compound was evaluated by same as that of MMP-1 assay. Unchanged type IV collagen was precipitated by centrifugation, and the degradation percent of substrate was calculated by comparison with a fluorescence intensity of heat denatured substrate as 100%. Inhibition of enzyme activity was expressed as an IC50 value which was the concentration of test compound necessary to produce 50% inhibition of collagen type IV degradation by enzyme.

The target of assay [2] is T2, MMP-9 (gelatinase B) (Homo sapiens, UniProt P14780).
T2 construct: purchased Yagai Co. Ltd; host or cells: human fibrosarcoma
T2 sequence (P14780 94-707): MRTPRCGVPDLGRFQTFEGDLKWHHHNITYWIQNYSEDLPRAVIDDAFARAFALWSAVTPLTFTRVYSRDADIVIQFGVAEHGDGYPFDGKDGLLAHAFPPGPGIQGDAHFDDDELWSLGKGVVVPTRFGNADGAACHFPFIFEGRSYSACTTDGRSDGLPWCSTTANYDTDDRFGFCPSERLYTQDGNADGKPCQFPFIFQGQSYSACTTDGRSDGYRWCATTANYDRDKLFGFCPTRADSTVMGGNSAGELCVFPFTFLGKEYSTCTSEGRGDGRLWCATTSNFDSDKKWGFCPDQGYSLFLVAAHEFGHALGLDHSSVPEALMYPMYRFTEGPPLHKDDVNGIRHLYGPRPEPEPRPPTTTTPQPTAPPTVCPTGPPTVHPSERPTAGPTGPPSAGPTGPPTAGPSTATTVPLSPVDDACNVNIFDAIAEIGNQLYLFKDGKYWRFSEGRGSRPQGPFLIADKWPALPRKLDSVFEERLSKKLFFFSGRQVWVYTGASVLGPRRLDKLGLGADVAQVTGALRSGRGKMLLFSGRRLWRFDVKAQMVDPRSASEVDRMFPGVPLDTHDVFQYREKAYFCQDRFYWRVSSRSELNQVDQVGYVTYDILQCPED
The assay is described as follows: MMP-9 (gelatinase B) inhibitory activity, FITC-labeled type IV collagen degradation. The class given is biochemical. Conditions: 50% inhibition of collagen type IV degradation; MMP-9 derived from human fibrosarcoma; 42° C., 4 h. As for the experimental part:
as §1, §2

For orientation: IC50 means the concentration at which inhibition is half-maximal. A higher IC50 goes with weaker potency. Take `CNC(=O)[C@H](Cc1ccccc1)NC(=O)[C@H](CCc1ccc2cccccc1-2)CC(=O)O` [Compound 2, N-[(2R)-2-(1'-Carboxymethyl)-4-(azulene-1-yl)butyroyl]-L-phenylalanine N-Methylamide]: the IC50 was 390 nM in assay [1] and 1300 nM in assay [2].
The like results for `CNC(=O)[C@H](Cc1ccc(OC)cc1)NC(=O)[C@H](CCc1ccc2cccccc1-2)CC(=O)O` [Compound 3, (2S)-2-[(2R)-2-(1'-Carboxymethyl)-4-(azulene-1-yl)butyroyl)amino-3-(4-methoxy)phenylpropanoylmethylamide] were, in that order, 240 nM and 280 nM.
As for `CNC(=O)[C@@H](NC(=O)[C@H](CCc1ccc2cccccc1-2)CC(=O)O)C(C)(C)C` [Compound 4, N-[(2R)-2-(1'-Carboxymethyl)-4-(azulene-1-yl)butyroyl]-L-tert-leucine N-Methylamide], the IC50 in assay [1] turned out to be 1000 nM; in assay [2], 300 nM.
Taken in the same sequence, the figures for `CNC(=O)[C@H](Cc1ccccc1)NC(=O)[C@H](CCCc1ccc2cccccc1-2)CC(=O)O` [Compound 5, N-[(2R)-2-(1'-Carboxymethyl)-5-(azulene-1-yl)pentanoyl]-L-phenylalanine N-Methylamide] were > 10000 nM and 2800 nM.
The like results for `CCOc1ccc(C[C@H](NC(=O)[C@H](CCc2ccc3cccccc2-3)CC(=O)O)C(=O)NC)cc1` [Compound 6, (2S)-2-[(2R)-2-(1'-Carboxymethyl)-4-(azulene-1-yl)butyroyl]amino-3-(4-ethoxy)phenylpropanoyl methylamide] were, in that order, 1000 nM and 360 nM.
Taken in the same sequence, the figures for `CNC(=O)[C@H](Cc1ccccc1)NC(=O)[C@H](CCCCc1ccc2cccccc1-2)CC(=O)O` [Compound 7, N-[(2R)-2-(1'-Carboxymethyl)-6-(azulene-1-yl)hexanoyl]-L-phenylalanine N-Methylamide] were > 10000 nM and 3000 nM.
For `CNC(=O)[C@H](Cc1ccccc1)NC(=O)[C@H](CCOc1ccc(OC)cc1)CC(=O)O` [Compound 8, N-[(2R)-2-(1'-Carboxymethyl)-4-[(4-methoxyphenyl)oxy]butyroyl]-L-phenylalanine N-Methylamide], the 50% inhibitory concentration (IC50) in assay [1] was 160 nM; in assay [2], 35 nM.
On to `CCOc1ccc(OCC[C@H](CC(=O)O)C(=O)N[C@@H](Cc2ccccc2)C(=O)NC)cc1` [Compound 9, N-[(2R)-2-(1'-Carboxymethyl)-4-[(4-ethoxyphenyl)oxy]butyroyl]-L-phenylalanine N-Methylamide], for which the IC50 stood at 49 nM in assay [1] and 39 nM in assay [2].
Taken in the same sequence, the figures for `CNC(=O)[C@H](Cc1ccccc1)NC(=O)[C@H](CCCOc1ccc(OC)cc1)CC(=O)O` [Compound 10, N-[(2R)-2-(1'-Carboxymethyl)-5-[(4-methoxyphenyl)oxy]pentanoyl]-L-phenylanine N-Methylamide] were 50 nM and 5.1 nM.
Taken in the same sequence, the figures for `COc1ccc(OCCC[C@H](CC(=O)O)C(=O)N[C@@H](Cc2ccccc2)C(=O)NC(C)(C)C)cc1` [Compound 11] were 100 nM and 14 nM.
With `COc1ccc(OCCC[C@H](CC(=O)O)C(=O)N[C@@H](Cc2ccccc2)C(=O)NCCS(N)(=O)=O)cc1` [Compound 12, 2-[[N-(2R)-2-(1'-Carboxymethyl)-5-[(4-methoxyphenyl)oxy]pentanoyl]-L-phenylalanyl]amino-ethanesulfonamid], the values for the IC50 in assay [1] and in assay [2] were 21 nM and 3 nM, respectively.
As to `CCOc1ccc(OCCC[C@H](CC(=O)O)C(=O)N[C@@H](Cc2ccccc2)C(=O)NC)cc1` [Compound 13, N-[(2R)-2-(1'-Carboxymethyl)-5-[(4-ethoxyphenyl)oxy]pentanoyl]-L-phenylalanine N-Methylamide], the IC50 was 18 nM in assay [1] and 13 nM in assay [2].
For the molecule `CNC(=O)[C@H](Cc1ccccc1)NC(=O)[C@H](CCCCOc1ccc(OC)cc1)CC(=O)O` [Compound 14], the IC50 is 160 nM in assay [1] and 120 nM in assay [2].
As to `CCOc1ccc(OCCCC[C@H](CC(=O)O)C(=O)N[C@@H](Cc2ccccc2)C(=O)NC)cc1` [Compound 15, N-((2R)-2-(1'-Carboxymethyl)-6-[(4-ethoxyphenyl)oxy]hexanoyl]-L-phenylananine N-Methylamide], the values for the IC50 in assay [1] and in assay [2] were 61 nM and 420 nM, respectively.
`C=CCOc1ccc(OCCCC[C@H](CC(=O)O)C(=O)N[C@@H](Cc2ccccc2)C(=O)NC)cc1` [Compound 16, N-[(2R)-2-(1'-Carboxymethyl)-6-[(4-allyloxyphenyl)oxy]hexanoyl]-L-phenylananine N-Methylamide]: the IC50 was found to be 180 nM in assay [1] and 1000 nM in assay [2].
The like results for `CNC(=O)[C@H](Cc1ccc(OC)cc1)NC(=O)[C@H](CCOc1ccc(OC)cc1)CC(=O)O` [Compound 17, (2S)-2-[(2R)-2-(1'-Carboxymethyl)-4-[(4-methoxyphenyl)-oxy]butyroyl]amino-3-(4-methoxy)phenylpropanoylmethylamide] were, in that order, 46 nM and 13 nM.
Taken in the same sequence, the figures for `CNC(=O)[C@H](Cc1ccc(OC)cc1)NC(=O)[C@H](CCCOc1ccc(OC)cc1)CC(=O)O` [Compound 18] were 250 nM and 5.4 nM.
Consider `COc1ccc(C[C@H](NC(=O)[C@H](CCCOc2ccc(OC)cc2)CC(=O)O)C(=O)NC(C)(C)C)cc1` [Compound 19, (2S)-2-[(2R)-2-(1'Carboxymethyl)-5-[(methoxyphenyl)oxy]pentanoyl]amino-3-(4-methoxy)phenylpropanoyl-tert-butylamide], for which the IC50 is 76 nM in assay [1] and 13 nM in assay [2].
For `COc1ccc(C[C@H](NC(=O)[C@H](CCCOc2ccc(OC)cc2)CC(=O)O)C(=O)NCCS(N)(=O)=O)cc1` [Compound 20], the IC50 in assay [1] was found to be 16 nM; in assay [2] it was 2.9 nM.
As for `CNC(=O)[C@H](Cc1ccc(OC)cc1)NC(=O)[C@H](CCCCOc1ccc(OC)cc1)CC(=O)O` [Compound 21, (2S)-2-[(2R)-2-(1'-Carboxymethyl)-6-[(4-methoxyphenyl)-oxy]hexanoyl]amino-3-(4-methoxy)phenylpropanoylmethylamide], the IC50 was determined as 160 nM in assay [1] and 52 nM in assay [2].
Consider `CCOc1ccc(C[C@H](NC(=O)[C@H](CCCOc2ccc(OC)cc2)CC(=O)O)C(=O)NC)cc1` [Compound 22, (2S)-2-[(2R)-2-(1'-Carboxymethyl)-5-[(4-methoxyphenyl)-oxy]pentanoyl]amino-3-(4-ethoxy)phenylpropanoylmethylamide], for which the IC50 was found to be 140 nM in assay [1] and 9.5 nM in assay [2].
Turning to `CCOc1ccc(C[C@H](NC(=O)[C@H](CCCCOc2ccc(OC)cc2)CC(=O)O)C(=O)NC)cc1` [Compound 23, (2S)-2-[(2R)-2-(1'-Carboxymethyl)-6-[(4-methoxyphenyl)oxy]hexanoyl]amino-3-(4-ethoxy)phenylpropanoylmethylamide], the IC50 was 200 nM in assay [1] and 51 nM in assay [2].
Taken in the same sequence, the figures for `CNC(=O)[C@@H](NC(=O)[C@H](CCCOc1ccc(OC)cc1)CC(=O)O)C(C)(C)C` [Compound 24, N-[(2R)-2-(1'-Carboxymethyl)-5-[(4-methoxyphenyl)oxy]pentanoyl]-L-tert-leucine N-Methylamide] were 140 nM and 7.2 nM.
On to `COc1ccc(OCCC[C@H](CC(=O)O)C(=O)N[C@H](C(=O)NC(C)(C)C)C(C)(C)C)cc1` [Compound 25, N-[(2R)-2-(1'-Carboxymethyl)-5-[(4-methoxyphenyl)oxy]pentanoyl]-L-tert-leucine N-tert-Butylamide], for which the IC50 turned out to be 200 nM in assay [1] and 28 nM in assay [2].
The like results for `COc1ccc(OCCC[C@H](CC(=O)O)C(=O)N[C@H](C(=O)NCCS(N)(=O)=O)C(C)(C)C)cc1` [Compound 26] were, in that order, 48 nM and 6.5 nM.
Take `CNC(=O)[C@@H]1Cc2ccccc2CN1C(=O)[C@H](CCCOc1ccc(OC)cc1)CC(=O)O` [Compound 27, N-[(2R)-2-(1'-Carboxymethyl)-5-[(4-methoxyphenyl)oxy]pentanoyl]-L-tetrahydroisoquinoline N-Methylamide]: the values for the IC50 in assay [1] and in assay [2] were > 10000 nM and 1500 nM, respectively.

The record behind these values is patent US5990158A, “Carboxylic acid derivatives, method of manufacturing the same and therapeutic agents containing these compounds” (Kotobuki Seiyaku Co., Ltd., priority 1996, dated 1999).
